Data as given in the supplement of paper PMC10307832.

Assays:
Experiment in all cases: relative viability (nuclei count vs DMSO), 5 days (fraction); higher = more cells survive
VE-821 + OSI-027 = compound: CS(=O)(=O)c1ccc(-c2cnc(N)c(C(=O)Nc3ccccc3)n2)cc1 [VE-821] + COc1cccc2cc(-c3nc([C@H]4CC[C@H](C(=O)O)CC4)n4ncnc(N)c34)[nH]c12 [OSI-027] (partner 0.5 µM)
In short: (§1)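 Lung cancer cell lines in 1536-well plates were dosed by pin tool the day after seeding, either with one drug alone or with a fixed anchor-drug dose plus five library-drug doses (not always all listed) in √10 steps. After 5 days, cells were fixed and their nuclei stained in one step (final 0.05% Triton X-100, 1% formaldehyde, 1 ug/ml Hoechst), then counted on 4× images. Relative viability is the nuclei count in treated wells divided by that in vehicle wells. Values are medians of duplicate plates.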

Vismodegib + Decitabine = compound: CS(=O)(=O)c1ccc(C(=O)Nc2ccc(Cl)c(-c3ccccn3)c2)c(Cl)c1 [Vismodegib] + Nc1ncn([C@H]2C[C@H](O)[C@@H](CO)O2)c(=O)n1 [Decitabine] (partner 2 µM)
In short: as §1

Ruxolitinib + Foretinib = compound: N#CC[C@H](C1CCCC1)n1cc(-c2ncnc3[nH]ccc23)cn1 [Ruxolitinib] + COc1cc2c(Oc3ccc(NC(=O)C4(C(=O)Nc5ccc(F)cc5)CC4)cc3F)ccnc2cc1OCCCN1CCOCC1 [Foretinib] (partner 0.25 µM)
In short: as §1

VE-821 + Decitabine = compound: CS(=O)(=O)c1ccc(-c2cnc(N)c(C(=O)Nc3ccccc3)n2)cc1 [VE-821] + Nc1ncn([C@H]2C[C@H](O)[C@@H](CO)O2)c(=O)n1 [Decitabine] (partner 2 µM)
In short: as §1

| Cell Line | relative viability (VE-821 + OSI-027; first compound 0.08 µM) | relative viability (VE-821 + OSI-027; first compound 0.253 µM) | relative viability (VE-821 + OSI-027; first compound 0.8 µM) | relative viability (VE-821 + OSI-027; first compound 2.53 µM) | relative viability (VE-821 + OSI-027; first compound 8 µM) | relative viability (Vismodegib + Decitabine; first compound 0.08 µM) | relative viability (Vismodegib + Decitabine; first compound 0.253 µM) | relative viability (Vismodegib + Decitabine; first compound 0.8 µM) | relative viability (Vismodegib + Decitabine; first compound 2.53 µM) | relative viability (Vismodegib + Decitabine; first compound 8 µM) | relative viability (Ruxolitinib + Foretinib; first compound 0.08 µM) | relative viability (Ruxolitinib + Foretinib; first compound 0.253 µM) | relative viability (Ruxolitinib + Foretinib; first compound 0.8 µM) | relative viability (Ruxolitinib + Foretinib; first compound 2.53 µM) | relative viability (Ruxolitinib + Foretinib; first compound 8 µM) | relative viability (VE-821 + Decitabine; first compound 0.08 µM) | relative viability (VE-821 + Decitabine; first compound 0.253 µM) | relative viability (VE-821 + Decitabine; first compound 0.8 µM) | relative viability (VE-821 + Decitabine; first compound 2.53 µM) | relative viability (VE-821 + Decitabine; first compound 8 µM) |
| --- | --- | --- | --- | --- | --- | --- | --- | --- | --- | --- | --- | --- | --- | --- | --- | --- | --- | --- | --- | --- |
| NCI-H358 | 0.983 | 0.875 | 0.727 | 0.79 | 0.48 | 0.21 | 0.228 | 0.21 | 0.256 | 0.225 | 0.531 | 0.692 | 0.638 | 0.619 | 0.558 | 0.22 | 0.279 | 0.278 | 0.278 | 0.273 |
| NCI-H441 | 0.718 | 0.641 | 0.644 | 0.72 | 0.583 | 0.23 |  | 0.235 | 0.211 | 0.238 | 1.07 | 0.915 | 0.997 | 0.787 | 0.855 | 0.305 | 0.271 | 0.226 | 0.258 | 0.271 |
| NCI-H460 | 0.814 | 0.628 | 0.409 | 0.292 | 0.0463 | 0.603 | 0.467 | 0.544 | 0.486 | 0.54 | 1.02 | 0.999 | 1.1 | 0.917 | 0.843 | 0.554 | 0.543 | 0.366 | 0.276 | 0.0965 |
| NCI-H520 | 0.257 | 0.257 | 0.195 | 0.278 | 0.208 | 0.491 | 0.445 | 0.572 | 0.459 | 0.499 | 0.703 |  | 0.853 | 0.753 | 0.885 | 0.516 | 0.526 | 0.583 | 0.545 | 0.379 |
| NCI-H596 | 0.648 | 0.519 | 0.534 | 0.558 | 0.451 | 0.889 | 0.967 | 0.979 | 0.997 | 1.07 | 0.907 | 0.848 | 0.888 | 0.947 | 0.804 | 1.08 | 1.08 | 1.04 | 1.12 | 1.09 |
| NCI-H647 | 0.748 | 0.786 | 0.676 | 0.509 | 0.376 | 0.38 | 0.327 | 0.38 | 0.385 | 0.409 | 1.08 | 1.27 | 1.31 | 1.19 | 1.08 | 0.401 | 0.5 | 0.385 | 0.385 | 0.235 |
| NCI-H650 | 0.499 | 0.473 | 0.57 | 0.455 | 0.532 | 0.33 | 0.314 | 0.329 | 0.344 | 0.298 |  | 1 | 1.14 | 0.917 | 0.678 | 0.311 | 0.342 | 0.383 | 0.436 | 0.366 |
| NCI-H661 | 0.805 | 0.743 | 0.783 | 0.758 | 0.663 | 0.47 | 0.528 | 0.549 | 0.575 | 0.577 | 0.92 | 1.05 | 1.08 | 0.94 | 0.926 | 0.61 | 0.568 | 0.648 | 0.628 | 0.602 |
| NCI-H727 | 0.721 | 0.624 | 0.619 | 0.54 | 0.355 | 0.9 | 1.01 | 0.857 | 0.837 | 0.9 | 1.21 | 0.976 | 1.3 | 0.873 | 1.03 | 0.865 | 0.799 | 0.952 | 0.916 | 0.751 |
| NCI-H838 | 0.431 | 0.341 | 0.329 | 0.425 | 0.435 | 0.464 | 0.43 | 0.502 | 0.431 | 0.609 | 1.06 | 0.994 | 0.907 | 0.572 | 0.453 | 0.461 | 0.488 | 0.564 | 0.559 | 0.456 |
| NCI-H1355 | 0.443 | 0.346 | 0.375 | 0.442 | 0.307 | 0.354 | 0.333 | 0.347 | 0.372 | 0.364 | 0.85 | 0.967 | 1.12 | 0.87 | 0.893 | 0.362 | 0.347 | 0.333 | 0.371 | 0.36 |
| NCI-H1395 | 0.684 | 0.605 | 0.607 | 0.639 | 0.484 | 0.736 | 0.696 | 0.693 | 0.71 | 0.727 | 1.07 | 0.919 | 1.03 | 0.866 | 0.968 | 0.733 | 0.672 | 0.74 | 0.74 | 0.638 |
| NCI-H1437 | 1.12 | 0.831 | 0.838 | 0.851 | 0.756 | 0.587 | 0.533 | 0.606 | 0.554 | 0.501 | 1.37 | 1.51 | 1.41 | 1.35 | 1.17 | 0.579 | 0.488 | 0.593 | 0.598 | 0.497 |
| NCI-H1650 | 0.757 | 0.542 | 0.546 | 0.613 | 0.415 | 0.411 | 0.388 | 0.426 | 0.447 | 0.512 |  | 1.25 | 1.29 | 1.27 | 1.13 | 0.448 | 0.369 | 0.322 | 0.437 | 0.389 |
| NCI-H1651 | 0.781 | 0.629 | 0.578 | 0.686 | 0.521 | 0.581 | 0.617 | 0.682 | 0.528 | 0.579 | 0.621 | 0.791 | 0.947 | 0.776 | 0.95 | 0.486 | 0.697 | 0.614 | 0.673 | 0.543 |
| NCI-H1666 | 0.903 | 0.785 | 0.948 | 0.936 | 0.703 | 0.763 | 0.774 | 0.739 | 0.676 | 0.69 | 0.844 | 0.93 | 1.01 | 0.856 | 0.892 | 0.698 | 0.702 | 0.786 | 0.753 | 0.688 |
